“Also recorded” adds a separate entry of the source.
How the values were obtained:
[1] = test system: phosphorylation of eIF4B at S406; assay: Immunoblotting of eIF4B S406 phosphorylation in drug-treated mitotic cells; format: cell-based, human
Description: MDA-MB-468 cells stably expressing tetracycline-inducible (tet-on) small hairpin MELK (shMELK) in the presence or absence of doxycycline were harvested through treatment of nocodazole, and subjected to immunoblotting. […] Mitotic MDA-MB-468 cells were treated for 30 min with vehicle or 200 nM OTSSP167, a MELK inhibitor (Chung et al. (2012) Oncotarget 3:1629-1640). Lysates were used for immunoblotting.
(§1) For treatment with nocodazole, cells were refreshed with medium containing nocodazole (200 ng/ml). Twenty hours after treatment, floating mitotic cells were harvested by gental shake-off. For drug treatment, cells were seeded in multi-well plate, in the presence of OTSSP167 (ChemExpress, HY15512; 10 mM stock made in DMSO).
(§2) Cells were harvested and lysed with RIPA buffer (25 mM Tris, pH 7.4, 150 mM NaCl, 1% Nonidet P-40, 0.5% sodium deoxycholate, and 0.1% sodium dodecyl sulfate) supplemented with protease inhibitors cocktail (Roche) and phosphatase inhibitors cocktail (Thermo Scientific). Cleared lysates were analyzed for protein concentration using a BCA kit (Thermo Scientific). Equal amount of protein (10-20 μg) was resolved on SDS-PAGE, and was subsequently transferred onto a nitrocellulose or polyvinylidene difluoride membrane (Amersham). The membrane was blocked with 5% non-fat milk and was then incubated with primary antibodies overnight at 4° C. After washing, the membrane was incubated with fluorophore-conjugated secondary antibodies for 1 h at room temperature. The membrane was then washed and scanned with an Odyssey® Infrared scanner (Li-Cor Biosciences).
The following antibodies were used for immunoblotting or immunoprecipitation, MELK (Epitomics, 2916), p-eIF4B (S406) (Cell Signaling, 8151), p-eIF4B (S422) (Cell Signaling, 3591), eIF4B (Cell Signaling, 3592), c-Myc (Cell Signaling, 5605), XIAP (Cell Signaling, 2045), p-Akt (S473) (Cell Signaling, 4060), p-MAPK (T202/Y204) (Cell Signaling, 4370), cleaved PARP (Asp214) (Cell Signaling, 9541), Aurora A (Cell Signaling, 4718), Aurora B (Cell Signaling, 3094), p-Aurora A (T288)/Aurora B (T232)/Aurora C (T198) (Cell Signaling, 2914), p-Histone H3 (T3) (Cell Signaling, 13576), p-Histone H3 (S10) (Cell Signaling, 3377), p-Histone H3 (T11) (Cell Signaling, 9767), p-Histone H3 (S28) (Cell Signaling, 9713), ODC (Sigma, O1136), Vinculin (Sigma, V9131, alpha-tubulin (Sigma, T9016), anti-HA magnetic beads (Pierce, 88836), anti-Flag magnetic beads (Sigma, M8823). Secondary antibodies used were Alexa Fluor 680 goat anti-rabbit IgG (Invitrogen A-21109) and IRDye800-conjugated anti-mouse IgG (Rockland).

[2] = molecular target: T1, recombinant MELK (kinase domain) (Homo sapiens, UniProt Q14680); assay: In vitro kinase assay, recombinant MELK (kinase domain) with recombinant Histone H3, immunoblotting; format: biochemical; settings: 200 ng/ml final, 30 min at 30° C. (FIG. 12)
T1 construct: incubated without or with recombinant MELK (kinase domain) for 30 min. at 30° C
T1 sequence (Q14680 11-263 limits assumed): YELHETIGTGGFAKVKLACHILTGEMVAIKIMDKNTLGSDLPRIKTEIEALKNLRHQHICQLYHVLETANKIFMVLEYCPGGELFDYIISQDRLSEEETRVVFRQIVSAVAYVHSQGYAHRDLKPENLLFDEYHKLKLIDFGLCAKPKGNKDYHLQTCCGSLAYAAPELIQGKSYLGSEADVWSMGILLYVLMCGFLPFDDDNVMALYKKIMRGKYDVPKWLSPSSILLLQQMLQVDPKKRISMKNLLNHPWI
Description: Reactions were terminated by adding SDS sample buffer. Samples were subjected to immunoblotting using the indicated antibodies.
Flag-tagged eIF4B or Flag-eIF4B (S406A) was transfected into HEK293T cells (4 μg DNA for cells in one 60 mm dish). Thirty-six hours after transfection, cells were lysed with IP buffer (100 mM NaCl, 50 mM Tris, pH 7.5, 0.5% NP-40, 0.5% Sodium deoxycholate, supplemented with protease/phosphatase inhibitor cocktail). Lysates were cleared via incubating with anti-mouse IgG conjugated to magnetic beads (4° C., 30 min), and then immunoprecipitated with anti-Flag M2 magnetic beads (Sigma) (4° C., 120 min). The beads with bound antigens were washed 5 times with IP buffer. Beads during the last wash were aliquoted into 1.5 ml microcentrifuge tubes. After removal of IP buffer, the beads were washed once with 1× kinase buffer without ATP (5 mM Tris, pH 7.5, 5 mM-βglycerophosphate, 2 mM dithiothreitol, 0.1 mM Na3VO4, 10 mM MgCl2; Cell Signaling). After the wash, 40 μl 1× kinase buffer with 200 mM ATP was added to each tube, followed by 5 ul buffer without or with 500 ng recombinant MELK. The reaction was incubated at 30° C. for 30 min, and terminated by adding 40 ul 2×SDS sample buffer. The samples were then boiled and subjected to immunoblotting. […]

[3] = test system: mitotic phosphorylation of Histone H3; assay: Immunoblotting of mitotic Histone H3 phosphorylation in drug-treated cells; format: cell-based, human
Description: Mitotic cells were harvested through nocodazole-induced cell cycle arrest at prometaphase (200 ng/ml nocodazole, 20 hours). Cells were treated with the small chemical inhibitor of MELK, OTSSP167, for 30 min, at the indicated concentrations. Cell lysates were then prepared for immunoblotting.
as §1
as §2, with “The membrane was then washed and scanned with an Odyssey® Infrared scanner (Li-Cor Biosciences).” left out

[4] = mitotic cells treated for 30 min, mTOR inhibitors versus MELK inhibitor (FIG. 6)

Row | SMILES | phosphorylation of eIF4B at S406 [1, 4] | phosphorylation of eIF4B at S406 ([1]; mitotic cells treated for 30 min, mTOR inhibitors versus MELK inhibitor (FIG. 6), listed as torins) | phosphorylation of eIF4B at S406 ([1]; mitotic MDA-MB-468 cells, 200 nM, 30 min, vs vehicle (FIG. 5 right panels)) | MELK-induced phosphorylation of Histone H3 at Ser 10 in vitro [2] | phosphorylation of Histone H3 at Thr3/Ser10/Thr11 ([3]; MDA-MB-468 cells (text cites FIG. 12)) | mitotic phosphorylation of Histone H3 at Thr-3, Ser-10 and Thr-11 ([3]; nocodazole-arrested mitotic cells, 30 min, indicated concentrations (FIG. 13))
1 | CCC(=O)N1CCN(c2ccc(-n3c(=O)ccc4cnc5ccc(-c6cnc7ccccc7c6)cc5c43)cc2C(F)(F)F)CC1 [Torin 1] | not mTOR inhibition | do not produce the same results |  |  |  | 
2 | CC(=O)c1cnc2ccc(-c3cc(Cl)c(O)c(Cl)c3)nc2c1N[C@H]1CC[C@H](CN(C)C)CC1 [OTSSP167] | suppressed the phosphorylation of eIF4B at S406 |  | impairs the phosphorylation of eIF4B at S406 | suppresses MELK-induced phosphorylation of Histone H3 at Ser 10 | reduced phosphorylation of Histone H3 at Thr3/Ser10/Thr11 | concentration-dependent reduction; also recorded: suppresses the mitotic phosphorylation of Histone H3 at Thr-3, Ser-10 and Thr-11
